Measured values reported in PubChem BioAssay (NCI).
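1) Cells in 96-well plates. 2) Compound, 48 h, 5 concentrations. 3) Linear interpolation between surrounding doses. 4) Unreached endpoint = highest concentration. TGI denotes the concentration required for complete inhibition of growth.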

Columns and labels:
Experiment in all cases: growth of human tumour cells (NCI), 48 h
COLO 205 colon = tested on: COLO 205 colon
U251 CNS = tested on: U251 CNS
SR leukemia = tested on: SR leukemia
NCI-H226 lung = tested on: NCI-H226 lung
T-47D breast = tested on: T-47D breast
KM12 colon = tested on: KM12 colon
DU-145 prostate = tested on: DU-145 prostate
IGROV1 ovarian = tested on: IGROV1 ovarian
OVCAR-4 ovarian = tested on: OVCAR-4 ovarian
TK-10 renal = tested on: TK-10 renal
SK-OV-3 ovarian = tested on: SK-OV-3 ovarian

| SMILES | TGI (COLO 205 colon) [µM] | TGI (U251 CNS) [µM] | TGI (SR leukemia) [µM] | TGI (NCI-H226 lung) [µM] | TGI (T-47D breast) [µM] | TGI (KM12 colon) [µM] | TGI (DU-145 prostate) [µM] | TGI (IGROV1 ovarian) [µM] | TGI (OVCAR-4 ovarian) [µM] | TGI (TK-10 renal) [µM] | TGI (SK-OV-3 ovarian) [µM] |
| --- | --- | --- | --- | --- | --- | --- | --- | --- | --- | --- | --- |
| C=CCOC(=O)C1C2OC3(C(C(=O)OC)=C2C(=O)OC)c2ccccc2CCC13 (stereo not drawn) | > 10 | > 10 | > 10 | > 10 | > 10 | > 10 | > 10 | > 10 | > 10 | > 10 | > 10 |
| COc1ccc2c(c1)CCN1CCc3cc(OC)c(OC)cc3CC21 (stereo not drawn) | > 100 | > 100 | > 100 | > 100 | > 100 | > 100 | > 100 | > 10 | > 100 | > 100 | > 100 |
| Cc1nc(-c2ccc(N=Cc3ccc(N(CCOS(C)(=O)=O)CCOS(C)(=O)=O)cc3C)cc2)cs1 | > 100 | > 100 | > 100 | 28.3 | 90.2 | > 100 | > 100 | > 100 | > 100 | > 100 | > 100 |
| C[C@H]1C=C2[C@@H]3CC(C)(C(=O)O)CC[C@]3(C)CC[C@]2(C)[C@]2(C)CC[C@H]3C(C)(C)[C@@H](OC(=O)c4cccc5c(=O)c6ccccc6[nH]c45)CC[C@]3(C)[C@@H]12 (stereo partly drawn) | > 100 | > 100 | > 100 | > 100 | 87.5 | > 100 | > 100 | > 100 | > 100 | > 100 | > 100 |
| CN(C)CCCN1c2ccccc2CCc2ccc([N+](=O)[O-])cc21 | 32 | > 100 | > 100 | 90.4 | 34.1 | 33.8 | 38.6 | 31 | > 100 | 41.8 | > 100 |
| Cc1ccc(/C(O)=C/C(=O)C(=O)NN=C(c2ccccc2)c2ccccc2)cc1 | > 100 | > 100 | > 100 | > 100 | > 100 | > 100 | > 100 | > 100 | > 100 | > 100 | > 100 |
| CC(C)(CC(O)C#N)/[N+]([O-])=[N+](\[O-])C(C)(C)CC(O)C#N (stereo not drawn) | 31.7 | > 100 | 49.5 | 77 | 82.3 | > 100 | 92.9 | 49.6 | 81 | 96 | > 100 |
| Cc1ccc(/C=C2\CCCC(CN3CCCCC3)C2=O)cc1 (stereo not drawn) | 3.25 | 27.3 | > 100 | 5.99 | 3.41 | 2.72 | 23.9 | 3.72 | 3.62 | 7.44 | 30.1 |
| COc1cccc(N2C(=O)C3c4[nH]c5ccc(C)cc5c4C4CCC(C(C)(C)C)CC4C3C2=O)c1 (stereo not drawn) | > 10 | > 10 | 4.03 | 8.78 | > 10 | > 10 | > 10 | > 10 | > 10 | > 10 | > 10 |
| COC(=O)c1c(O)ccc2c1C1(Cc3ccccc3C1=O)C(O)O2 (stereo not drawn) | > 100 | 61.4 | 25.3 | 35.5 | 45.3 | 69.1 | > 100 | 36.3 | 35.8 | 52.6 | 57.8 |
| O=c1onc2c3ccccc3ncn12 | > 100 | > 100 | > 100 | > 100 | > 100 | > 100 | > 100 | > 100 | > 100 | > 100 | > 100 |
| COC(=O)c1c(OC(C)=O)ccc2c1c1c(OC(C)=O)c3ccccc3c(OC(C)=O)c1n2Cc1ccccc1 | 15.6 | 17.3 | > 50 | > 50 | 10.5 | 5.65 | 45.5 | 19.7 | 29.6 | > 50 | 19.5 |
| OC1(c2ccccc2)CSC2=Nc3ccccc3C3CCN1N23 (stereo not drawn) | 32.3 | 28.1 | 55.4 | > 100 | 47.5 | 42 | 29.7 | 27.4 | > 100 | 43.2 | > 100 |
